Data taken from patent US20150197492A1, “NOVEL INDENO[1,2-c]QUINOLIN-11-ONE DERIVATIVES, PREPARATION METHOD AND APPLICATION THEREOF” (National Defense Medical Center, priority 2014, published 2015).

Assays:
Experiment in all cases: cells
Assay type in all cases: cell-based
[1] = system: MDA-MB-435; conditions: MDA-MB-435 (Melanoma), 10 μM, 48 hours
[2] = system: OVCAR-5; conditions: OVCAR-5 (Ovarian Cancer), 10 μM, 48 hours
[3] = system: UACC-62; conditions: UACC-62 (Melanoma), 10 μM, 48 hours
[4] = system: ACHN; conditions: ACHN (Renal Cancer), 10 μM, 48 hours
[5] = system: MCF7; conditions: MCF7 (Breast Cancer), 10 μM, 48 hours
[6] = system: A549/ATCC; conditions: A549/ATCC (Non-Small Cell Lung Cancer), 10 μM, 48 hours
[7] = system: HCC-2998; conditions: HCC-2998 (Colon Cancer), 10 μM, 48 hours
[8] = system: HCT-15; conditions: HCT-15 (Colon Cancer), 10 μM, 48 hours
[9] = system: OVCAR-4; conditions: OVCAR-4 (Ovarian Cancer), 10 μM, 48 hours
[10] = system: CAKI-1; conditions: CAKI-1 (Renal Cancer), 10 μM, 48 hours
[11] = system: UO-31; conditions: UO-31 (Renal Cancer), 10 μM, 48 hours
[12] = system: MALME-3M; conditions: MALME-3M (Melanoma), 10 μM, 48 hours
[13] = system: TK-10; conditions: TK-10 (Renal Cancer), 10 μM, 48 hours
[14] = system: PC-3; conditions: PC-3 (Prostate Cancer), 10 μM, 48 hours
[15] = system: MOLT-4; conditions: MOLT-4 (Leukemia), 10 μM, 48 hours
[16] = system: SNB-19; conditions: SNB-19 (CNS Cancer), 10 μM, 48 hours
[17] = system: OVCAR-8; conditions: OVCAR-8 (Ovarian Cancer), 10 μM, 48 hours
[18] = system: SF-268; conditions: SF-268 (CNS Cancer), 10 μM, 48 hours
[19] = system: SK-OV-3; conditions: SK-OV-3 (Ovarian Cancer), 10 μM, 48 hours
[20] = system: UACC-257; conditions: UACC-257 (Melanoma), 10 μM, 48 hours
[21] = system: M14; conditions: M14 (Melanoma), 10 μM, 48 hours
[22] = system: NCI-H522; conditions: NCI-H522 (Non-Small Cell Lung Cancer), 10 μM, 48 hours
[23] = system: NCI-H322M; conditions: NCI-H322M (Non-Small Cell Lung Cancer), 10 μM, 48 hours
[24] = system: MDA-MB-231/ATCC; conditions: MDA-MB-231/ATCC (Breast Cancer), 10 μM, 48 hours
[25] = system: MDA-MB-468; conditions: MDA-MB-468 (Breast Cancer), 10 μM, 48 hours
[26] = system: RPMI-8226; conditions: RPMI-8226 (Leukemia), 10 μM, 48 hours
[27] = system: SNB-75; conditions: SNB-75 (CNS Cancer), 10 μM, 48 hours
[28] = system: OVCAR-3; conditions: OVCAR-3 (Ovarian Cancer), 10 μM, 48 hours

Row | SMILES | growth percentage [1] [%] | growth percentage [2] [%] | growth percentage [3] [%] | growth percentage [4] [%] | growth percentage [5] [%] | growth percentage [6] [%] | growth percentage [7] [%] | growth percentage [8] [%] | growth percentage [9] [%] | growth percentage [10] [%] | growth percentage [11] [%] | growth percentage [12] [%] | growth percentage [14] [%] | growth percentage [15] [%] | growth percentage [16] [%] | growth percentage [17] [%] | growth percentage [18] [%] | growth percentage [19] [%] | growth percentage [20] [%] | growth percentage [21] [%] | further results
1 | CC1CCN(c2nc3ccccc3c3c2-c2ccc(Cl)cc2C3=O)CC1 [SJ-6, 9-Chloro-6-(4-methylpiperidin-1-yl)-11H-indeno[1,2-c]quinolin-11-one] | 104.53 | 104.92 | 93.36 | 94.75 | 64.65 | 101.69 | 102.76 | 97.78 | 97.11 | 83.89 | 76.25 | 98.31 | 90.64 | 94.41 | 103.87 | 96.38 | 96.49 | 99.78 | 106.47 | 96.60 | growth percentage [13]: 134.79%; growth percentage [22]: 98.45%; growth percentage [23]: 107.08%; growth percentage [24]: 90.96%; growth percentage [25]: 97.12%; growth percentage [26]: 97.99%; growth percentage [27]: 84.42%; growth percentage [28]: 97.59%
2 | O=C1c2cc(Cl)ccc2-c2c(N3CCN(C4CCCC4)CC3)nc3ccccc3c21 [SJ-14, 9-Chloro-6-(4-cyclopentylpiperazin-1-yl)-11H-indeno[1,2-c]quinolin-11-one] | 99.93 | 106.41 | 95.06 | 100.03 | 75.18 | 101.56 | 106.04 | 89.64 | 94.20 | 93.83 | 72.57 | 92.48 | 86.19 | 98.39 | 95.06 | 96.55 | 96.39 | 96.85 | 98.37 | 105.34 | growth percentage [22]: 98.72%; growth percentage [23]: 98.50%; growth percentage [24]: 82.96%; growth percentage [25]: 103.99%; growth percentage [26]: 94.89%; growth percentage [27]: 86.36%; growth percentage [28]: 99.54%
3 | O=C1c2cc(Cl)ccc2-c2c(N3CCN(c4ccccc4)CC3)nc3ccccc3c21 [SJ-16, 9-Chloro-6-(4-phenylpiperazin-1-yl)-11H-indeno[1,2-c]quinolin-11-one] | 99.55 | 88.56 | 87.17 | 68.58 | 53.31 | 90.89 | 106.23 | 80.71 | 90.32 | 80.23 | 65.02 | 100.05 | 79.79 | 98.13 | 88.40 | 75.82 | 85.45 | 78.58 | 98.40 | 97.52 | growth percentage [13]: 115.61%; growth percentage [22]: 80.10%; growth percentage [23]: 98.63%; growth percentage [24]: 73.80%; growth percentage [25]: 95.37%; growth percentage [26]: 95.33%; growth percentage [27]: 33.20%; growth percentage [28]: 98.07%
4 | COc1cccc(N2CCN(c3nc4ccccc4c4c3-c3ccc(Cl)cc3C4=O)CC2)c1 [SJ-20, 9-Chloro-6-(4-(3-methoxyphenyl)piperazin-1-yl)-11H-indeno[1,2-c]quinolin-11-one] | 100.75 | 98.22 | 86.44 | 93.51 | 77.46 | 101.22 | 105.79 | 100.39 | 87.08 | 86.59 | 86.64 | 92.79 | 72.83 | 95.46 | 105.27 | 83.98 | 83.89 | 86.02 | 93.79 | 105.07 | growth percentage [13]: 133.34%; growth percentage [22]: 79.75%; growth percentage [23]: 91.93%; growth percentage [24]: 79.81%; growth percentage [25]: 101.04%; growth percentage [26]: 93.63%; growth percentage [27]: 37.76%; growth percentage [28]: 104.27%
